Assay results reported in patent publication US20240150356A1, “Pyrimidine amide compounds and use thereof” (ALPHALA CO., LTD., priority 2019, published 2024).
Read-outs that look alike come from different tables or passages of the source.

System: Hep3B cells (hepatocellular carcinoma cell line)
Test: In vitro MTS cell viability assay (NCI-60 methodology), Hep3B
Assay type: cell-based
Details: Homo sapiens, 48 h
Summary of the method: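 Hep3B cells given five 2-fold dilutions of compound for 2 days, with viability by MTS measured at time zero and at end. LC50 is the concentration giving a 50% fall in viable cells relative to the start of treatment, per NCI-60 formula.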

[1] = Table 5, MTS, 2 days drug incubation, 50% reduction vs time zero, read-out: Hep3B LC50
[2] = Table 10, MTS, 2 days drug incubation, 50% reduction vs time zero, read-out: Hep3B LC50
[3] = Table 6, MTS, 2 days drug incubation, 50% reduction vs time zero, read-out: Hep3B LC50
[4] = Table 4, MTS, 2 days drug incubation, 50% reduction vs time zero, read-out: Hep3B LC50
[5] = Table 1, MTS, 2 days drug incubation, 50% reduction vs time zero, read-out: Hep3B LC50
[6] = Table 7, MTS, 2 days drug incubation, 50% reduction vs time zero, read-out: Hep3B LC50

CCOCCOCCOc1ccc(-c2nc(NC(=O)c3ccc([N+](=O)[O-])s3)c3cnn(-c4ccccc4)c3n2)cn1 [Compound 5-57, N-(6-(6-(2-(2-ethoxyethoxy)ethoxy)pyridin-3-yl)-1-phenyl-1H-pyrazolo[3,4-d]pyrimidin-4-yl)-5-nitrothiophene-2-carboxamide]
LC50 [1]: 0.79 µM

CC1CC(C)CC(n2ncc3c(NC(=O)c4ccc([N+](=O)[O-])s4)nc(-c4ccc(Cl)cc4F)nc32)C1 (stereo not drawn) [Compound 10-72, N-(6-(4-chloro-2-fluorophenyl)-1-(3,5-dimethylcyclohexyl)-1H-pyrazolo[3,4-d]pyrimidin-4-yl)-5-nitrothiophene-2-carboxamide]
LC50 [2]: 0.76 µM

CCOCCOCCOc1ccc(-c2nc(NC(=O)c3ccc([N+](=O)[O-])s3)c3cnn(-c4ccc(C(C)(C)C)cc4)c3n2)cn1 [Compound 6-83, N-(1-(4-(ter-butyl)phenyl)-6-(6-(2-(2-ethoxyethoxy)ethoxy)pyridin-3-yl)-1H-pyrazolo[3,4-d]pyrimidin-4-yl)-5-nitrothiophene-2-carboxamide]
LC50 [3]: 0.41 µM

O=C(Nc1nc(-c2cccc(C(F)(F)F)c2)nc2c1cnn2-c1ccccc1)c1ccc([N+](=O)[O-])s1 [Compound 5-38, 5-nitro-N-(1-phenyl-6-(3-(trifluoromethyl)phenyl)-1H-pyrazolo[3,4-d]pyrimidin-4-yl)thiophene-2-carboxamide]
LC50 [1]: 0.45 µM

Cc1csc2c(NC(=O)c3ccc([N+](=O)[O-])s3)nc(-c3ccc(F)cc3)nc12 [Compound 4-8]
LC50 [4]: 1.7 µM

O=C(Nc1nc(-c2cccc(OC(F)(F)F)c2)nc2c1cnn2-c1cccc(Cl)c1)c1ccc([N+](=O)[O-])s1 [Compound 6-40, N-(1-(3-chlorophenyl)-6-(3-(trifluoromethoxy)phenyl)-1H-pyrazolo[3,4-d]pyrimidin-4-yl)-5-nitrothiophene-2-carboxamide]
LC50 [3]: 0.48 µM

CC(C)(C)c1ccc(-n2ncc3c(NC(=O)c4ccc([N+](=O)[O-])s4)nc(N4CC(F)(F)C4)nc32)cc1 [Compound 6-65, N-(1-(4-(tert-butyl)phenyl)-6-(3,3-difluoroazetidin-1-yl)-1H-pyrazolo[3,4-d]pyrimidin-4-yl)-5-nitrothiophene-2-carboxamide]
LC50 [3]: 0.32 µM

O=C(Nc1nc(-c2ccc(OC(F)(F)F)cc2)nc2c1cnn2CCN1CCC(F)(F)C1)c1ccc([N+](=O)[O-])s1 [Compound 1-32, N-(1-(2-(3,3-difluoropyrrolidin-1-yl)ethyl)-6-(4-(trifluoromethoxy)phenyl)-1H-pyrazolo[3,4-d]pyrimidin-4-yl)-5-nitrothiophene-2-carboxamide]
LC50 [5]: 0.77 µM

CCOCCOCCOc1nc(NC(=O)c2ccc([N+](=O)[O-])s2)c2cnn(-c3ccccc3)c2n1 [Compound 5-10, N-(6-(2-(2-ethoxyethoxy)ethoxy)-1-phenyl-1H-pyrazolo[3,4-d]pyrimidin-4-yl)-5-nitrothiophene-2-carboxamide]
LC50 [1]: > 5 µM

O=C(Nc1nc(-c2ccc(F)cc2)nc2c1cnn2-c1ccc(Cl)cc1Cl)c1ccc([N+](=O)[O-])s1 [Compound 7-9]
LC50 [6]: 0.37 µM

COc1ccc(-n2ncc3c(NC(=O)c4ccc([N+](=O)[O-])s4)nc(C4=CCC(C)(C)CC4)nc32)cc1 [Compound 6-29, N-(6-(4,4-dimethylcyclohex-1-en-1-yl)-1-(4-methoxyphenyl)-1H-pyrazolo[3,4-d]pyrimidin-4-yl)-5-nitrothiophene-2-carboxamide]
LC50 [3]: 0.82 µM

CC(C)(C)c1ccc(-n2ncc3c(NC(=O)c4ccc([N+](=O)[O-])s4)nc(N4CCCCC4)nc32)cc1 [Compound 6-63, N-(1-(4-(tert-butyl)phenyl)-6-(piperidin-1-yl)-1H-pyrazolo[3,4-d]pyrimidin-4-yl)-5-nitrothiophene-2-carboxamide]
LC50 [3]: 1.92 µM

O=C(Nc1nc(-n2ccc(C(F)(F)F)n2)nc2c1cnn2-c1ccccc1)c1ccc([N+](=O)[O-])s1 [Compound 5-22, 5-nitro-N-(1-phenyl-6-(3-(trifluoromethyl)-1H-pyrazol-1-yl)-1H-pyrazolo[3,4-d]pyrimidin-4-yl)thiophene-2-carboxamide]
LC50 [1]: 0.38 µM

O=C(Nc1nc(-c2cc(C(F)(F)F)ccc2F)nc2c1cnn2-c1ccccc1)c1ccc([N+](=O)[O-])s1 [Compound 5-50, N-(6-(2-fluoro-5-(trifluoromethyl)phenyl)-1-phenyl-1H-pyrazolo[3,4-d]pyrimidin-4-yl)-5-nitrothiophene-2-carboxamide]
LC50 [1]: 0.35 µM

O=C(Nc1nc(-c2ccc3c(c2)OCCO3)nc2c1cnn2C1CCCCC1)c1ccc([N+](=O)[O-])s1 [Compound 10-37, N-(1-cyclohexyl-6-(2,3-dihydrobenzo[b][1.4]dioxin-6-yl)-1H-pyrazolo[3,4-d]pyrimidin-4-yl)-5-nitrothiophene-2-carboxamide]
LC50 [2]: 1.94 µM

O=C(Nc1nc(-c2ccc(Cl)c(F)c2)nc2c1cnn2-c1ccccc1)c1ccc([N+](=O)[O-])s1 [Compound 5-46, N-(6-(4-chloro-3-fluorophenyl)-1-phenyl-1H-pyrazolo[3,4-d]pyrimidin-4-yl)-5-nitrothiophene-2-carboxamide]
LC50 [1]: 0.24 µM

CC(C)(C)[Si](C)(C)OC1CN(c2nc(NC(=O)c3ccc([N+](=O)[O-])s3)c3cnn(-c4ccc(OC(F)(F)F)cc4)c3n2)C1 [Compound 6-84]
LC50 (read-out: Hep3B LC50 (uM)): 1.13 µM

CCCOc1ccc(-c2nc(NC(=O)c3ccc([N+](=O)[O-])s3)c3cnn(-c4ccc(OC)cc4)c3n2)cn1 [Compound 6-25]
LC50 [3]: 0.21 µM

Cn1ncc2c(NC(=O)c3ccc([N+](=O)[O-])s3)nc(C#Cc3ccc(C(F)(F)F)cc3)nc21 [Compound 1-13, N-(1-methyl-6-((4-(trifluoromethyl)phenyl)ethynyl)-1H-pyrazolo[3,4-d]pyrimidin-4-yl)-5-nitrothiophene-2-carboxamide]
LC50 [5]: 2.03 µM

Cc1csc2c(NC(=O)c3ccc([N+](=O)[O-])s3)nc(-c3ccc(N(C)C)cc3)nc12 [Compound 4-10, N-(2-(4-(dimethylamino)phenyl)-7-methylthieno[3,2-d]pyrimidin-4-yl)-5-nitrothiophene-2-carboxamide]
LC50 [4]: > 10 µM

CCCC(=O)N1CCC(n2ncc3c(NC(=O)c4ccc([N+](=O)[O-])s4)nc(-c4ccc(F)nc4)nc32)CC1 [Compound 9-7, N-(1-(1-butyrylpiperidin-4-yl)-6-(6-fluoropyridin-3-yl)-1H-pyrazolo[3,4-d]pyrimidin-4-yl)-5-nitrothiophene-2-carboxamide]
LC50 (Table 9, MTS, 2 days drug incubation, 50% reduction vs time zero, read-out: Hep3B LC50): > 5 µM

O=C(Nc1nc(-c2ccc(F)nc2)nc2c1cnn2-c1ccc(C(F)(F)F)cn1)c1ccc([N+](=O)[O-])s1 [Compound 7-2, N-(6-(6-fluoropyridin-3-yl)-1-(5-(trifluoromethyl)pyridin-2-yl)-1H-pyrazolo[3,4,d]pyrimidin-4-yl)-5-nitrothiophene-2-carboxamide]
LC50 [6]: 0.15 µM

O=C(Nc1nc(-c2ccc(Cl)cc2)nc2c1cnn2C1CCC(F)(F)CC1)c1ccc([N+](=O)[O-])s1 [Compound 10-56, N-(6-(4-chlorophenyl)-1-(4,4-difluorocyclohexyl)-1H-pyrazolo[3,4,d]pyrimidin-4-yl)-5-nitrothiophene-2-carboxamide]
LC50 [2]: 0.77 µM

CC1(C)CCC(n2ncc3c(NC(=O)c4ccc([N+](=O)[O-])s4)nc(-c4ccc(F)nc4)nc32)CC1 [Compound 10-62, N-(1-(4,4-dimethylcyclohexyl)-6-(6-fluoropyridin-3-yl)-1H-pyrazolo[3,4-d]pyrimidin-4-yl)-5-nitrothiophene-2-carboxamide]
LC50 [2]: 0.71 µM
